Patent US20250353873A1, “COMPOUNDS AND METHODS FOR MODULATING APOE EXPRESSION” (Ionis Pharmaceuticals, Inc., priority 2024, published 2025)
Strand notation (5' to 3'): a small letter for the sugar, then the base; units joined by * are phosphorothioate-linked, units joined directly phosphodiester-linked; [ ] holds rarer units or linkages, { } end groups; capitals alone tell only the bases. [ms] = mesyl phosphoramidate linkage; e = 2'-O-(2-methoxyethyl) (MOE); k = constrained ethyl (cEt); [5mC] = 5-methylcytosine; d = 2'-deoxy (DNA)

How the values were obtained:
human APOE RNA [1] = test: Dose-dependent inhibition of human APOE RNA in differentiated SH-SY5Y cells, free uptake, 5 days (Example 5); type: cell-based; settings: 5 days (Table 14)
Summary of the method: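 APOE RNA, measured by RTS3073 primer probe set and normalized to human PPIA, is reported as % of untreated control cells, with IC50 fitted. Cells were differentiated SH-SY5Y at 10,000/well, given modified oligonucleotide at several concentrations by free uptake for 5 days.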

human APOE RNA [2] = test: Potency (dose response, ED50) in APOE C57BL/6NTac-Apoeem7250 knock-in mice, 4 weeks (Example 14); type: in vivo; settings: for ED 50 (μg) Cortex / ED 50 (μg) Spinal Cord: single ICV bolus, GraphPad Prism 10
Procedure: Modified oligonucleotides described above were tested in the APOE C57BL/6NTac-Apoeem7250 knock-in mouse model described above.
APOE C57BL/6NTac-Apoeem7250 knock-in mice were divided into groups of 3-4 mice each. A group of 3-4 mice received a single ICV bolus with PBS as a negative control.
Four weeks post treatment, mice were sacrificed, and RNA was extracted from cortical brain tissue and spinal cord for quantitative real-time RT-PCR analysis of RNA expression of […] using human primer probe set RTS3073 (described herein above). APOE RNA levels were normalized to mouse Ppia. Mouse Ppia was amplified using primer probe set m_cyclo24 (described herein above). Results are presented as percent human APOE RNA relative to the amount of APOE RNA in PBS treated animals, (% control). N.C. indicates values that were not calculated. Each experiment is identified in separate tables below.
The half maximal effective dose (ED50) of each modified oligonucleotide was calculated using GraphPad Prism 10 software (GraphPad Software, San Diego, CA).

human APOE RNA [3] = test: Activity in APOE C57BL/6NTac-Apoeem7250 knock-in mice, single ICV bolus, 8 weeks (Example 11); type: in vivo; settings: single ICV bolus 300 μg, 8 weeks post treatment, normalized to mouse Ppia
Summary of the method: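 Cortical and spinal cord human APOE RNA quantified by RT-qPCR 8 weeks after a single 300 μg ICV dose in knock-in mice, Ppia-normalized. Values are percent of levels in PBS-treated animals.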

human APOE RNA [4] = test: Dose-dependent reduction of human APOE RNA in HepG2 cells, electroporation, 20,000 cells per well, average of GAPDH- and PPIA-normalized results (Example 4, Table 12); type: cell-based; settings: HepG2, 20,000 cells per well; for IC50: approximately 24 hours
Procedure: HepG2 cells plated at a density of 20,000 cells per well were treated by electroporation with various concentrations of modified oligonucleotide as specified in the tables below. […] APOE RNA levels were measured using the human primer probe set RTS3073 (described herein above). APOE RNA levels were normalized to human GAPDH, and human PPIA. Human GAPDH was amplified using human primer probe set RTS104 (described herein above). Human PPIA was amplified using human primer probe set mk_cycloA_2nd (described herein above) The average of the GAPDH-normalized results and the PPIA-normalized results are presented in the table below as percent APOE RNA, relative to the amount of APOE RNA in untreated control cells (% UTC). The half maximal inhibitory concentration (IC50) of each modified oligonucleotide was calculated in GraphPad Prism 10 (GraphPad Software, San Diego, CA) and is also presented in the table below.

human APOE RNA [5] = test: Activity in APOE C57BL/6NTac-Apoeem7250 knock-in mice, single ICV bolus, 4 weeks (Example 10); type: in vivo; settings: single ICV bolus 300 μg
Summary of the method: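 Human APOE RNA, quantified by real-time RT-PCR with RTS3073 and normalized to mouse Ppia, was read in cortical brain and spinal cord 4 weeks post dosing. Dosing was a single ICV bolus of 300 μg per knock-in mouse; values are % of PBS-treated animals.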

[6] = cortex, 4 weeks post treatment, normalized to mouse Ppia
[7] = spinal cord, 4 weeks post treatment, normalized to mouse Ppia

Substance | APOE RNA (% UTC) (human APOE RNA [1]; 5 nM) | APOE RNA (% UTC) (human APOE RNA [1]; 13 nM) | APOE RNA (% UTC) (human APOE RNA [1]; 33 nM) | APOE RNA (% UTC) (human APOE RNA [1]; 82 nM) | APOE RNA (% UTC) (human APOE RNA [1]; 205 nM) | APOE RNA (% UTC) (human APOE RNA [1]; 512 nM) | APOE RNA (% UTC) (human APOE RNA [1]; 1,280 nM) | APOE RNA (% UTC) (human APOE RNA [1]; 3,200 nM) | APOE RNA (% UTC) (human APOE RNA [1]; 8,000 nM) | APOE RNA (% UTC) (human APOE RNA [1]; 20,000 nM) | IC50 (human APOE RNA [1]) [nM] | APOE RNA (% control) Cortex (human APOE RNA [2]; ICV dose 10 μg) [% control] | APOE RNA (% control) Cortex (human APOE RNA [2]; ICV dose 30 μg) [% control] | APOE RNA (% control) Cortex (human APOE RNA [2]; ICV dose 100 μg) [% control] | APOE RNA (% control) Cortex (human APOE RNA [2]; ICV dose 300 μg) [% control] | APOE RNA (% control) Cortex (human APOE RNA [2]; ICV dose 700 μg) [% control] | ED 50 (μg) Cortex (human APOE RNA [2]) [µg] | APOE RNA (% control) Spinal Cord (human APOE RNA [2]; ICV dose 10 μg) [% control] | APOE RNA (% control) Cortex (human APOE RNA [3]) [% control] | APOE RNA (% control) Spinal Cord (human APOE RNA [3]) [% control] | other results
1757575 (eA*e[5mC]eTeT*kG*kG*dT*dG[ms]dA[ms]dA[ms]dT*d[5mC]*dT*dT*dT*dA[ms]kT*eT*eA*eA; antisense) [Compound 1757575] | 44 | 56 | 39 | 50 | 34 | 30 | 26 | 23 | 12 | 11 | 10 | 100 | 82 | 88 | 51 | 30 | 337.5 | 82 | 35 | 32 | APOE RNA (% control) Spinal Cord (human APOE RNA [2]; ICV dose 30 μg): 48 % control; APOE RNA (% control) Spinal Cord (human APOE RNA [2]; ICV dose 100 μg): 40 % control; APOE RNA (% control) Spinal Cord (human APOE RNA [2]; ICV dose 300 μg): 28 % control; APOE RNA (% control) Spinal Cord (human APOE RNA [2]; ICV dose 700 μg): 51 % control; ED 50 (μg) Spinal Cord (human APOE RNA [2]): 84.6 µg; APOE RNA (% UTC) (human APOE RNA [4]; 5 nM): 92 % UTC; APOE RNA (% UTC) (human APOE RNA [4]; 13 nM): 96 % UTC; APOE RNA (% UTC) (human APOE RNA [4]; 33 nM): 93 % UTC; APOE RNA (% UTC) (human APOE RNA [4]; 82 nM): 81 % UTC; APOE RNA (% UTC) (human APOE RNA [4]; 205 nM): 72 % UTC; APOE RNA (% UTC) (human APOE RNA [4]; 512 nM): 47 % UTC; APOE RNA (% UTC) (human APOE RNA [4]; 1,280 nM): 34 % UTC; APOE RNA (% UTC) (human APOE RNA [4]; 3,200 nM): 27 % UTC; APOE RNA (% UTC) (human APOE RNA [4]; 8,000 nM): 10 % UTC; APOE RNA (% UTC) (human APOE RNA [4]; 20,000 nM): 5 % UTC; IC50 (human APOE RNA [4]): 570 nM; APOE RNA (% control) Cortex (human APOE RNA [5]; [6]): 38 % control; APOE RNA (% control) Spinal Cord (human APOE RNA [5]; [7]): 27 % control
1778130: modified oligonucleotide complementary to human APOE RNA (eA*e[5mC]eTeTeG*kG*dT*dG[ms]dA[ms]dA*dT*d[5mC]*dT*dT*dT*dA[ms]kTkT*eA*eA; antisense) [compound 1778130] | 78 | 75 | 75 | 51 | 54 | 56 | 51 | 31 | 24 | 12 | 370 | 123 | 100 | 69 | 74 | 37 | 502.4 | 88 | 23 | 18 | APOE RNA (% control) Spinal Cord (human APOE RNA [2]; ICV dose 30 μg): 35 % control; APOE RNA (% control) Spinal Cord (human APOE RNA [2]; ICV dose 100 μg): 27 % control; APOE RNA (% control) Spinal Cord (human APOE RNA [2]; ICV dose 300 μg): 22 % control; APOE RNA (% control) Spinal Cord (human APOE RNA [2]; ICV dose 700 μg): 32 % control; ED 50 (μg) Spinal Cord (human APOE RNA [2]): 35.9 µg; APOE RNA (% UTC) (human APOE RNA [4]; 5 nM): 99 % UTC; APOE RNA (% UTC) (human APOE RNA [4]; 13 nM): 100 % UTC; APOE RNA (% UTC) (human APOE RNA [4]; 33 nM): 85 % UTC; APOE RNA (% UTC) (human APOE RNA [4]; 82 nM): 72 % UTC; APOE RNA (% UTC) (human APOE RNA [4]; 205 nM): 52 % UTC; APOE RNA (% UTC) (human APOE RNA [4]; 512 nM): 45 % UTC; APOE RNA (% UTC) (human APOE RNA [4]; 1,280 nM): 20 % UTC; APOE RNA (% UTC) (human APOE RNA [4]; 3,200 nM): 12 % UTC; APOE RNA (% UTC) (human APOE RNA [4]; 8,000 nM): 18 % UTC; APOE RNA (% UTC) (human APOE RNA [4]; 20,000 nM): 9 % UTC; IC50 (human APOE RNA [4]): 310 nM; APOE RNA (% control) Cortex (human APOE RNA [5]; [6]): 31 % control; APOE RNA (% control) Spinal Cord (human APOE RNA [5]; [7]): 34 % control
1778111: modified oligonucleotide complementary to human APOE RNA (eA*e[5mC]eTeTeG*kG*dT*dG[ms]dA[ms]dA*dT*d[5mC]*dT*dT*dT*dA[ms]eTeT*eA*eA; antisense) [compound 1778111] | 67 | 68 | 41 | 41 | 32 | 62 | 59 | 43 | 25 | 17 | 110 |  |  |  |  |  |  |  | 41 | 17 | APOE RNA (% UTC) (human APOE RNA [4]; 5 nM): 106 % UTC; APOE RNA (% UTC) (human APOE RNA [4]; 13 nM): 88 % UTC; APOE RNA (% UTC) (human APOE RNA [4]; 33 nM): 91 % UTC; APOE RNA (% UTC) (human APOE RNA [4]; 82 nM): 77 % UTC; APOE RNA (% UTC) (human APOE RNA [4]; 205 nM): 62 % UTC; APOE RNA (% UTC) (human APOE RNA [4]; 512 nM): 43 % UTC; APOE RNA (% UTC) (human APOE RNA [4]; 1,280 nM): 32 % UTC; APOE RNA (% UTC) (human APOE RNA [4]; 3,200 nM): 21 % UTC; APOE RNA (% UTC) (human APOE RNA [4]; 8,000 nM): 14 % UTC; APOE RNA (% UTC) (human APOE RNA [4]; 20,000 nM): 8 % UTC; IC50 (human APOE RNA [4]): 440 nM; APOE RNA (% control) Cortex (human APOE RNA [5]; [6]): 34 % control; APOE RNA (% control) Spinal Cord (human APOE RNA [5]; [7]): 53 % control
1693105: 6-10-4 MOE gapmer CTTGGTGAATCTTTATTAAA, linkages sosssszzzssssszssss (e[5mC]*eTeT*eG*eG*eT*dG[ms]dA[ms]dA[ms]dT*d[5mC]*dT*dT*dT*dA[ms]dT*eT*eA*eA*eA) [compound 1693105] |  |  |  |  |  |  |  |  |  |  |  | 100 | 85 | 77 | 59 | 48 | 573.3 | 71 | 58 | 43 | APOE RNA (% control) Spinal Cord (human APOE RNA [2]; ICV dose 30 μg): 71 % control; APOE RNA (% control) Spinal Cord (human APOE RNA [2]; ICV dose 100 μg): 47 % control; APOE RNA (% control) Spinal Cord (human APOE RNA [2]; ICV dose 300 μg): 49 % control; APOE RNA (% control) Spinal Cord (human APOE RNA [2]; ICV dose 700 μg): 61 % control; ED 50 (μg) Spinal Cord (human APOE RNA [2]): 892.8 µg; APOE RNA (% control) Cortex (human APOE RNA [5]; Cortex, C57BL/6NTac-Apoeem7250 knock-in mice, 4 weeks (Table 21)): 54 % control; APOE RNA (% control) Cortex (human APOE RNA [5]; Cortex, C57BL/6NTac-Apoeem7250 knock-in mice, 4 weeks (Table 22)): 65 % control; APOE RNA (% control) Spinal Cord (human APOE RNA [5]; Spinal Cord, C57BL/6NTac-Apoeem7250 knock-in mice, 4 weeks (Table 21)): 51 % control; APOE RNA (% control) Spinal Cord (human APOE RNA [5]; Spinal Cord, C57BL/6NTac-Apoeem7250 knock-in mice, 4 weeks (Table 22)): 87 % control
